# Assay results taken from patent US20120178147A1, “MICROBIAL CULTURES AND METHODS FOR ANAEROBIC BIOREMEDIATION” (priority 2009, published 2012).
# System: DehaloR̂2 cultures
# Test: TCC and TCS exposure: TCE reductive dechlorination by DehaloR̂2 culture
# Assay type: cell-based
# Details: for TCE completely dechlorinated into ethene in the 22-day period in DehaloR̂2: 1.5 μM TCC (32 μmol TCE) or 35 μM TCS
# Protocol: Cultures. Two cultures were used in this study: 1) Bio-Dechlor INOCULUM, which was obtained from Dr. Frank Loffler's laboratory at Georgia Tech; 2) DehaloR̂2 culture, developed from a sediment microcosm from the Chesapeake Bay “sediment core-D” with three-times continuous transfers described in Example 1.
# TCC and TCS Exposure. For the TCC and TCS test, 1 ml ATCC mixed vitamin solution (Catalog No. MD-VS), 0.25 ml 20 mg/L vitamin B12 solution and 1 ml 500 mM lactate solution were filtered with a 0.2 μm sterile filter and added to 92.5 ml sterile anaerobic media in 160 ml serum bottles, and then 5 ml of culture was transferred into this fresh media. Lactate served as electron donor and carbon source. Fifty μl TCE stock solutions ([…] in methanol) were injected into the media with 500-μl Hamilton air-tight syringe (Reno, Nev.), and the final TCE concentration was 35 μmol per serum bottle. Ten μl TCC or TCS stock solutions in methanol or pure methanol was injected with 10 μl Hamilton air-tight syringe (Reno, Nev.) into the serum bottle. Three concentration levels of TCC or TCS stock solutions were made and listed in Table 8 to make the three final concentration levels of TCC or TCS. The middle concentration level of TCC and TCS in cultures was set according to the solubility of TCC and TCS at 20° C. The highest concentration of TCC and TCS is 10 times the solubility of TCC and TCS at 20° C., and the lowest concentration of TCC and TCS is 10% the solubility of TCC and TCS at 20° C.
# The total aqueous volume in 160-ml serum bottle was 100 ml. Four BDI and four DehaloR̂2 cultures were generated for each concentration of TCC or TCS, and three of them were used for TCE dechlorination analysis and the other one was used for DNA extractions and molecular analysis. The error bars in the figures are the standard deviations for three independent cultures under the same conditions.
# The TCC and TCS tests on DehaloR̂2 culture were only dosed with the highest and middle concentrations of TCC and TCS, which are 1.5 μM TCC, 0.15 μM TCC, 35 μM TCS and 3.5 μM TCS, respectively.
# All cultures were stored in the dark and incubated at 30° C.
# Analytical Methods. The concentrations of TCE and their reductive-dechlorinating byproducts, 1,1-DCE, cis-DCE, trans-DCE, VC, and ethene were quantified by gas chromatography with a flame ionization detector (GC-FID).
# 200 μl headspace gas samples were withdrawn from 160 ml serum bottle with 500 μl gas-tight syringes (Hamilton Company, Reno, Nev.) and analyzed by a Shimadzu GC-2010 (Columbia, Md.) with an Rt™-QSPLOT capillary column (30 m×0.32 mm×10 μm, Restek, Bellefonte, Pa.) and a flame ionization detector (FID). The initial oven temperature was 110° C. and was held constant for 5 min. Then the temperature was raised with a gradient of 10° C./min to 150° C., a second gradient at 20° C./min to 200° C., and a third gradient of 5° C./min to 220° C. At the end of this gradient, the oven temperature was held constant at 220° C. for 5 min. The temperature of FID and injector were 240° C. Ultra high purity helium was the carrier gas for the GC. Ultra high purity hydrogen and zero grade air were used for the FID.
# Calibration curves for chlorinated compounds were determined based on the known mass of PCE, TCE, 1,1-DCE, cis-DCE and trans-DCE added to 160 ml serum bottles containing 100 ml of distilled-deionized water and equilibrated at 25° C. overnight. The contents were then analyzed using the Shimadzu GC-FID. Different volumes of 100 ppm and 1000 ppm VC and ethene gas were injected directly into GC using the 500 μl airtight syringe to make their calibration curves. The aqueous concentrations of PCE, TCE and their reaction products were calculated by using reported Henry's constants on the EPA website (Washington and Weaver, 2006)
# [1] = highest level: 1.5 μM TCC or 35 μM TCS
# [2] = middle level: 0.15 μM TCC or 3.5 μM TCS
Compound,TCE completely dechlorinated into ethene in the 22-day period in DehaloR̂2,Maximum formation rate VC in DehaloR̂2 (SCD) [1],Maximum formation rate cis-DCE in DehaloR̂2 (SCD) [1],Maximum utilization rate TCE in DehaloR̂2 (SCD) [1],effect on TCE reductive dechlorination in DehaloR̂2 cultures [1],Maximum formation rate Ethene in DehaloR̂2 (SCD) [2],Maximum formation rate VC in DehaloR̂2 (SCD) [2],Maximum formation rate cis-DCE in DehaloR̂2 (SCD) [2],Maximum utilization rate TCE in DehaloR̂2 (SCD) [2],Maximum utilization rate VC in DehaloR̂2 (SCD) [2],Maximum utilization rate cis-DCE in DehaloR̂2 (SCD) [2],effect on TCE reductive dechlorination in DehaloR̂2 cultures [2],further results
"O=C(Nc1ccc(Cl)cc1)Nc1ccc(Cl)c(Cl)c1 [TCC, 3-(4-chlorophenyl)-1-(3,4-dichlorphenyl) urea]",About 46%,8.12 μmol vial^−1 day^−1,12.83 μmol vial^−1 day^−1,9.54 μmol vial^−1 day^−1,significantly inhibited TCE reductive dechlorination,8.54 μmol vial^−1 day^−1,6.72 μmol vial^−1 day^−1,23.87 μmol vial^−1 day^−1,20.45 μmol vial^−1 day^−1,6.01 μmol vial^−1 day^−1,6.40 μmol vial^−1 day^−1,slowed down the TCE reductive dechlorination process,time for complete TCE reductive dechlorination in DehaloR̂2 (0.15 μM TCC): approximately 22 days; time for reductive dechlorination of 80% of 33 μmol TCE into ethene in DehaloR̂2 (0.15 μM TCC): 11 days; time for reductive dechlorination of TCE to cis-DCE in DehaloR̂2 (1.5 μM TCC): about 4 days; Maximum formation rate Ethene in DehaloR̂2 (SCD) (highest level: 1.5 μM TCC): 1.08 μmol vial^−1 day^−1; Maximum utilization rate VC in DehaloR̂2 (SCD) (highest level: 1.5 μM TCC): 1.48 μmol vial^−1 day^−1; Maximum utilization rate cis-DCE in DehaloR̂2 (SCD) (highest level: 1.5 μM TCC): 9.55 μmol vial^−1 day^−1
"Oc1cc(Cl)ccc1Oc1ccc(Cl)cc1Cl [TCS, 5-chloro-2-[2,4-dichloro-phenoxy]-phenol]",no ethene was produced,0.11 μmol vial^−1 day^−1,5.59 μmol vial^−1 day^−1,5.90 μmol vial^−1 day^−1,significantly inhibited TCE reductive dechlorination,3.11 μmol vial^−1 day^−1,8.99 μmol vial^−1 day^−1,8.79 μmol vial^−1 day^−1,13.47 μmol vial^−1 day^−1,1.96 μmol vial^−1 day^−1,9.10 μmol vial^−1 day^−1,slowed down the TCE reductive dechlorination process,"time for TCE reductive dechlorination to cis-DCE in DehaloR̂2 (3.5 μM TCS): about 4 days; TCE completely dechlorinated into ethene at the 18th day in DehaloR̂2 (3.5 μM TCS, 34 μmol TCE): 79%; TCE transformed into VC within 22 days in DehaloR̂2 (35 μM TCS): 1%"
